Legend:
canine 5-HT2B receptor = molecular target: T1, canine 5-HT2B receptor (Canis lupus familiaris, UniProt Q50DZ8); experiment: Canine 5-HT2B (c5-HT2B) in-vitro assay, FLIPR calcium response; format: cell-based; conditions: CHO-K1 cells stably expressing canine 5-HT2B receptor; inhibition of EC80 serotonin calcium response
T1 construct: expressed in transfected cells; host or cells: CHO-K1
Method: CHO-K1 cells stably expressing the canine 5-HT2B receptor were seeded at 20,000 cells per well in 20 μl culture media (DMEM with GlutaMAX™ high glucose+5% dialyzed FBS+10 mM HEPES+1×MEM Non-Essential Amino Acids of a 384-well black plate with clear bottom for at least 18 hours at 37° C. and 5% CO2. The cell plate was loaded with 20 μl/well of the FLIPR® Calcium 5 Assay kit prepared in HBSS containing calcium and magnesium supplemented with 20 mM HEPES and 5 mM Probenecid at pH 7.4 and incubated at 37° C. and 5% CO2 for 30 minutes and then an additional 30 minutes at room temperature. The intracellular calcium response was measured using the FLIPR Tetra® instrument measuring the kinetic response of the Calcium 5 dye at an excitation wavelength of 470-495 nm and emission wavelength of 515-575 nm at room temperature. The cells were initially challenged with a 5× concentration of the antagonist (10 μl/well) after an initial baseline recording and the calcium response was recorded for almost 2 minutes. After the completion of the initial antagonist challenge, the cell plate was incubated at room temperature in the FLIPR Tetra® instrument for 10 minutes. Finally, a second kinetic assay was performed after the 10 minute incubation at room temperature to measure the inhibitory response of the EC80 concentration of serotonin (15 μl/well) after an initial baseline recording. The IC50 concentration was determined for each antagonist tested.

hERG = molecular target: T2, hERG (Homo sapiens, UniProt Q12809); experiment: hERG in-vitro assay, IonWorks Barracuda population patch clamp; format: cell-based; conditions: hERG/HEK293 cells; hERG current block, 5 minutes exposure
T2 construct: stably transfected with full length hERG cDNA; expressed in transfected cells; host or cells: HEK293
T2 sequence (Q12809 whole entry): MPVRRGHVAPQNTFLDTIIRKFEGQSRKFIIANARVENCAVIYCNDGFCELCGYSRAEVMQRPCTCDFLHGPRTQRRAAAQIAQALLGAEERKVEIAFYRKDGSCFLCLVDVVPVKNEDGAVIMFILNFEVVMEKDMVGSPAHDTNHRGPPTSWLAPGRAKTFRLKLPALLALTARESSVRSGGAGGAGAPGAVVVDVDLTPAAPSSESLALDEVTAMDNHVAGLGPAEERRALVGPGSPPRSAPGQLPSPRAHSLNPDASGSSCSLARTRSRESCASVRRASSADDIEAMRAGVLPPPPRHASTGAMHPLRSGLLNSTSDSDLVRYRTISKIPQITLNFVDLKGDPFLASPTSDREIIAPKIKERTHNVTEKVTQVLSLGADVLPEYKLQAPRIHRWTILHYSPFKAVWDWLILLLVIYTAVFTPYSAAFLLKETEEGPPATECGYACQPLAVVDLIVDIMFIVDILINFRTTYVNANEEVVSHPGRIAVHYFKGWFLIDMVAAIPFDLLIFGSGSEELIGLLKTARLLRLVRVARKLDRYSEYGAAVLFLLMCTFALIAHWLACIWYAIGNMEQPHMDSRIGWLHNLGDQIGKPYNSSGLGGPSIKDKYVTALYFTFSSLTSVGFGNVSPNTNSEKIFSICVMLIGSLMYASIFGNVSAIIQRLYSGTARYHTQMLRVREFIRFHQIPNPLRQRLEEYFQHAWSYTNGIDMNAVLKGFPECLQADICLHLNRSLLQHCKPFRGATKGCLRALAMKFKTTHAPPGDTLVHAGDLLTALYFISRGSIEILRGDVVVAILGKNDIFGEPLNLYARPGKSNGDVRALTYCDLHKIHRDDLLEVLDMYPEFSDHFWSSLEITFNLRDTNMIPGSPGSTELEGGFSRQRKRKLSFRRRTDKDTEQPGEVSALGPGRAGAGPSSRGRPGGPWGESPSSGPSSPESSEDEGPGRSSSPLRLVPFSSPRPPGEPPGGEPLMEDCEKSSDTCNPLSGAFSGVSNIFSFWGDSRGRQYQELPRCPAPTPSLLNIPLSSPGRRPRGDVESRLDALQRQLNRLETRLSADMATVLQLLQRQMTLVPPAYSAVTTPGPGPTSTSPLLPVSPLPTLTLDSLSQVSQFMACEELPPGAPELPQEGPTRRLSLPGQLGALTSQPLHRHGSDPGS
Method: Stock solutions of compounds of the invention and positive control (cisapride; 0.001-3 μM) were prepared in DMSO. Stock solutions were diluted in a HEPES-buffered physiological saline solution. Test and control solutions contained 0.3% DMSO. Human hERG/HEK293 renal epithelial cells stably transfected with full length hERG cDNA were cultured in Dulbecco's Modified Eagle Medium/Nutrient Mixture F-12 (D-MEM/F-12) supplemented with 10% fetal bovine serum, 100 U/mL penicillin G sodium, 100 μg/mL streptomycin sulfate and 500 μg/mL G418. Before testing, cells in culture dishes were rinsed with Hank's Balanced Salt Solution (HBSS) and detached with accutase. Immediately before use in the IonWorks Barracuda™ system, the cells were washed with buffered physiological saline solution (HB-PS) buffer to remove the accutase and re-suspended in 5 mL of HB-PS. The test article effects were evaluated using IonWorks Barracuda™ systems (Molecular Devices Corporation, Union City, CA). HEPES-buffered intracellular solution for whole cell recordings was loaded into the intracellular compartment of the Population Patch Clamp™ (PPC) planar electrode.
Extracellular buffer (HB-PS) was loaded into PPC planar electrode plate wells (11 μL/well). The cell suspension was pipetted into the wells of the PPC planar electrode (9 μL/well). After establishment of a whole-cell configuration (the perforated patch), membrane currents were recorded using patch clamp amplifier in the IonWorks Barracuda™ system. The current recordings were performed one (1) time before test article application to the cells (baseline) and one (1) time after application of the test article. Test article concentrations were applied to naïve cells. Each application consisted of addition of 20 μL of 2× concentrated test article solution to the total 40 μL of final volume of the extracellular well of the PPC plate. Duration of exposure to each compound concentration was five (5) minutes. hERG current was elicited using a pulse pattern with fixed amplitudes (the first conditioning pre-pulse to 10 mV for 60 second, the second conditioning pre-pulse: −90 mV for 20 ms; the test pulse: +40 mV for 100 ms) from a holding potential of 0 mV (‘zero holding’ procedure). hERG current was measured as a difference between the peak current at 1 ms and at the end of test step to +40 mV. Data acquisition and analyses were performed using the IonWorks Barracuda™ system operation software (version 2.0.2). The decrease in current amplitude after test article application was used to calculate the percent block relative to control. Results for each test article concentration (n≥1) were averaged; the mean and standard deviation values were calculated and used to generate dose-response curves.

T1 sequence (Q50DZ8 1-434): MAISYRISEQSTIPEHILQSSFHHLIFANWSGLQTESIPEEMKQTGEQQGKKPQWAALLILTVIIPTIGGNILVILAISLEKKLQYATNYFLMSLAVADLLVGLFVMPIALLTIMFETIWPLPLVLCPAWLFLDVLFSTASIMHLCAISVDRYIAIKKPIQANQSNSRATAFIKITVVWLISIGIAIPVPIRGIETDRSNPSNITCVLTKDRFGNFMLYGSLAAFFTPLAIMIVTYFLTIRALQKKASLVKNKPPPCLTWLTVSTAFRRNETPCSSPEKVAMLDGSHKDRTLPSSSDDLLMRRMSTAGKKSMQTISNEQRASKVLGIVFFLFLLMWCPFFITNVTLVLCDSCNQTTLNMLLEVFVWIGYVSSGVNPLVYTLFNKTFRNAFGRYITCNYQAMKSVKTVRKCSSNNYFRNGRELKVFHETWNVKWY

| Compound | IC50 (canine 5-HT2B receptor) [nM] | IC50 (hERG) [nM] |
| --- | --- | --- |
| Cc1c[nH]c(C2CCN(C(=O)c3ccc(-c4ccc(F)cc4)cc3)CC2)n1 [CA-6, (4′-fluoro-[1,1′-biphenyl]-4-yl)(4-(4-methyl-1H-imidazol-2-yl)piperidin-1-yl)methanone, reference compound] | 7.3 | < 30 |
| O=C(c1ccc(-c2cccc3[nH]ccc23)cc1)N1CCC(c2ncc[nH]2)CC1 [Example 17, (4-(1H-imidazol-2-yl)piperidin-1-yl)(4-(1H-indol-4-yl)phenyl)methanone] | 0.04 | 5870 |
| O=C(c1ccc(-c2cccc(Cl)c2)cc1)N1CCC(c2ncc[nH]2)CC1 [Example 10, (4-(1H-imidazol-2-yl)piperidin-1-yl)(3′-chloro-[1,1′-biphenyl]-4-yl)methanone] | 0.51 | 2770 |
| O=C(c1ccc(-c2cccc(C(F)(F)F)c2)cc1)N1CCC(c2ncc[nH]2)CC1 [Example 19, (4-(1H-imidazol-2-yl)piperidin-1-yl)(3′-(trifluoromethyl)-[1,1′-biphenyl]-4-yl)methanone] | 0.89 | 1470 |
| O=C(c1ccc(Oc2ccccc2)cc1)N1CCC(c2ncc[nH]2)CC1 [Example 8, (4-(1H-imidazol-2-yl)piperidin-1-yl)(4-phenoxyphenyl)methanone] | 0.64 | 3140 |
| O=C(c1ccc(-c2ccccc2F)cc1)N1CCC(c2ncc[nH]2)CC1 [CA-7, (4-(1H-imidazol-2-yl)piperidin-1-yl)(2′-fluoro-[1,1′-biphenyl]-4-yl)methanone, reference compound] | 0.09 | 1100 |
| O=C(c1ccc(-c2cccc3c2OCO3)cc1)N1CCC(c2ncc[nH]2)CC1 [Example 20, (4-(1H-imidazol-2-yl)piperidin-1-yl)(4-(benzo[d][1,3]dioxol-4-yl)phenyl)methanone] | 0.01 | 3390 |
| Cc1cnc(C2CCN(C(=O)c3ccc(-c4ccc(C(F)(F)F)cc4)cc3)CC2)[nH]1 [Example 4, (4-(5-methyl-1H-imidazol-2-yl)piperidin-1-yl)(4′-(trifluoromethyl)-[1,1′-biphenyl]-4-yl)methanone] | 21.9 | 1130 |
| O=C(c1ccc2c(c1)oc1ccccc12)N1CCC(c2ncc[nH]2)CC1 [Example 15, (4-(1H-imidazol-2-yl)piperidin-1-yl)(dibenzo[b,d]furan-3-yl)methanone] | 0.65 | 2010 |
| CS(=O)(=O)c1cccc(-c2ccc(C(=O)N3CCC(c4ncc[nH]4)CC3)cc2)c1 [Example 2, (4-(1H-imidazol-2-yl)piperidin-1-yl)(3′-(methylsulfonyl)-[1,1′-biphenyl]-4-yl)methanone] | 52.3 | 72300 |
| O=C(c1ccc(-c2ccc(F)cc2)cc1)N1CCC(Cc2ncc[nH]2)CC1 [CA-1, (4-((1H-imidazol-2-yl)methyl)piperidin-1-yl)(4′-fluoro-[1,1′-biphenyl]-4-yl)methanone, reference compound] | 0.3 | 546 |
| O=C(c1ccc(Nc2ccccc2)cc1)N1CCC(c2ncc[nH]2)CC1 [Example 9, (4-(1H-imidazol-2-yl)piperidin-1-yl)(4-(phenylamino)phenyl)methanone] | 0.42 | 3850 |
| O=C(c1ccc(-c2ccc(F)cc2)cc1)N1CCC(c2ncc[nH]2)CC1 [CA-4, (4-(1H-imidazol-2-yl)piperidin-1-yl)(4′-fluoro-[1,1′-biphenyl]-4-yl)methanone, reference compound] | 0.08 | < 30 |
| N#Cc1ccc(-c2ccc(C(=O)N3CCC(c4ncc[nH]4)CC3)cc2)cc1 [CA-5, 4′-(4-(1H-imidazol-2-yl)piperidine-1-carbonyl)-[1,1′-biphenyl]-4-carbonitrile, reference compound] | 453 | 54 |
| O=C(c1ccc(-c2ccc(C(F)F)cc2)cc1)N1CCC(c2ncc[nH]2)CC1 [Example 16, (4-(1H-imidazol-2-yl)piperidin-1-yl)(4′-(difluoromethyl)-[1,1′-biphenyl]-4-yl)methanone] | 0.31 | 2740 |
| Cc1cnc(C2CCN(C(=O)c3ccc(-c4n[nH]c5ccccc45)cc3)CC2)[nH]1 [Example 6, (4-(1H-indazol-3-yl)phenyl)(4-(5-methyl-1H-imidazol-2-yl)piperidin-1-yl)methanone] | 0.65 | 35500 |
| O=C(c1ccc(-c2ccc(F)cc2)cc1)N1CCC(Nc2ncc[nH]2)CC1 [Example 1, (4-((1H-imidazol-2-yl)amino)piperidin-1-yl)(4′-fluoro-[1,1′-biphenyl]-4-yl)methanone] | 2 | 1540 |
| O=C(c1ccc(-c2ccccc2)cc1)N1CCC(c2ncc[nH]2)CC1 [CA-3, (4-(1H-imidazol-2-yl)piperidin-1-yl)([1,1′-biphenyl]-4-yl)methanone, reference compound] | 0.64 | 611 |

Now from value to compound, other results behind:

| IC50 (canine 5-HT2B receptor) [nM] | Compound | IC50 (hERG) [nM] |
| --- | --- | --- |
| 7.3 | O=C(c1ccc2c(-c3ccccc3)c[nH]c2c1)N1CCC(c2ncc[nH]2)CC1 [Example 32, (4-(1H-imidazol-2-yl)piperidin-1-yl)(3-phenyl-1H-indol-6-yl)methanone] | 15200 |
| 1.95 | O=C(c1ccc(-c2cc3ccccc3[nH]2)cc1)N1CCC(c2ncc[nH]2)CC1 [Example 30, (4-(1H-imidazol-2-yl)piperidin-1-yl)(4-(1H-indol-2-yl)phenyl)methanone] | 11000 |
| 1.4 | O=C(c1ccc2c(-c3c[nH]c4ccccc34)c[nH]c2c1)N1CCC(c2ncc[nH]2)CC1 [Example 29, [4-(1H-imidazol-2-yl)-1-piperidyl]-[3-(1H-indol-3-yl)-1H-indol-6-yl]methanone] | 27100 |
| 1.2 | O=C(c1ccc2c(-c3cccc4[nH]ccc34)c[nH]c2c1)N1CCC(c2ncc[nH]2)CC1 [Example 28, (4-(1H-imidazol-2-yl)piperidin-1-yl)(1H,1′H-[3,4′-biindol]-6-yl)methanone] | > 30000 |
| 0.02 | O=C(c1ccc(-c2c[nH]c3ccccc23)cc1)N1CCC(c2ncc[nH]2)CC1 [Example 23, (4-(1H-imidazol-2-yl)piperidin-1-yl)(4-(1H-indol-3-yl)phenyl)methanone] | 24800 |
| 0.46 | O=C(c1ccc(-c2ccc(C(F)F)cc2)cc1)N1CCC(Cc2ncc[nH]2)CC1 [Example 25, (4-((1H-imidazol-2-yl)methyl)piperidin-1-yl)(4′-(difluoromethyl)-[1,1′-biphenyl]-4-yl)methanone] | 3400 |
| 0.33 | O=C(c1ccc(-c2n[nH]c3ccccc23)cc1)N1CCC(c2ncc[nH]2)CC1 [Example 24, (4-(1H-imidazol-2-yl)piperidin-1-yl)(4-(1H-indazol-3-yl)phenyl)methanone] | 33600 |
| 1.1 | Cc1cnc(C2CCN(C(=O)c3ccc(-c4ccc5cc[nH]c5c4)cc3)CC2)[nH]1 [Example 27, (4-(1H-indol-6-yl)phenyl)(4-(5-methyl-1H-imidazol-2-yl)piperidin-1-yl)methanone] | 9280 |
| 0.84 | Cc1c[nH]c(C2CCN(C(=O)c3ccc(-c4c(C)[nH]c5ccccc45)cc3)CC2)n1 [Example 26, (4-(4-methyl-1H-imidazol-2-yl)piperidin-1-yl)(4-(2-methyl-1H-indol-3-yl)phenyl)methanone] | 13100 |

— patent publication US12240827B2, “Serotonin 5-HT2B inhibitory compounds” (Zoetis Services LLC, priority 2019, dated 2025)
